Assay results reported in PubChem BioAssay (NCI).
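1) Cells in 96-well plates. 2) Compound, 48 h, 5 concentrations. 3) Linear interpolation between surrounding doses. 4) Unreached endpoint = highest concentration. TGI: concentration producing complete growth inhibition.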

What was measured:
Assay in all cases: DTP human tumour cell line panel, 48 h
786-0 renal = tested on: 786-0 renal
A549 NSCLC = tested on: A549 NSCLC
COLO 205 colon = tested on: COLO 205 colon
DLD-1 colon = tested on: DLD-1 colon
DMS 273 small cell lung = tested on: DMS 273 small cell lung
EKVX NSCLC = tested on: EKVX NSCLC
HCT-116 colon = tested on: HCT-116 colon
LXFL 529 NSCLC = tested on: LXFL 529 NSCLC
M19-MEL melanoma = tested on: M19-MEL melanoma
MALME-3M melanoma = tested on: MALME-3M melanoma
NCI-H522 lung = tested on: NCI-H522 lung
OVCAR-4 ovarian = tested on: OVCAR-4 ovarian
SF-295 CNS = tested on: SF-295 CNS
SK-OV-3 ovarian = tested on: SK-OV-3 ovarian
SNB-78 CNS = tested on: SNB-78 CNS
SR leukemia = tested on: SR leukemia
DMS 114 small cell lung = tested on: DMS 114 small cell lung
KM20L2 colon = tested on: KM20L2 colon

Compound	TGI (786-0 renal) [µM]	TGI (A549 NSCLC) [µM]	TGI (COLO 205 colon) [µM]	TGI (DLD-1 colon) [µM]	TGI (DMS 273 small cell lung) [µM]	TGI (EKVX NSCLC) [µM]	TGI (HCT-116 colon) [µM]	TGI (LXFL 529 NSCLC) [µM]	TGI (M19-MEL melanoma) [µM]	TGI (MALME-3M melanoma) [µM]	TGI (NCI-H522 lung) [µM]	TGI (OVCAR-4 ovarian) [µM]	TGI (SF-295 CNS) [µM]	TGI (SK-OV-3 ovarian) [µM]	TGI (SNB-78 CNS) [µM]	TGI (SR leukemia) [µM]	TGI (DMS 114 small cell lung) [µM]	TGI (KM20L2 colon) [µM]
Cc1ccc(S(=O)(=O)NC(=O)C2S(=O)(=O)OCCOS2(=O)=O)cc1	> 100	> 100	> 100	> 100	> 100	> 100	> 100	> 100	> 100	> 100	> 100	> 100	> 100	> 100	> 100	> 100		
[N-]=[N+]=CC(=O)C1(C(=O)C=[N+]=[N-])CC1	> 100	> 100	> 100		> 100	> 100	> 100	> 100	> 100	> 100	> 100	> 100	> 100	> 100	> 100	> 100	> 100	> 100
CCC(=O)OC1CCn2c1nc1c2C(=O)C(C)=C(NC(C)=O)C1=O (stereo not given)	11.9	3.62	11.6	3.96	3.37	3.53	3.21	2.72	3.31	2.96	2.94	1.67	4.53	11.4	4.35	5.66	1.62	
Nc1cn(C2OC(CC(c3ccccc3)(c3ccccc3)c3ccccc3)C(O)C2O)c(=O)[nH]c1=O (stereo not given)	59.1	83.1	30.3	54.6	> 100	> 100	32	91.8	34.9	55.7	38.3		99.7	98.2	> 100	39.9	35.4	42.1
CC(C)OP(=O)(OC(C)C)C(=NCCO)NNc1ccc([N+](=O)[O-])cc1	> 100	> 100	> 100	> 100	> 100	> 100	> 100	> 100	> 100	> 100	> 100	> 100			> 100	> 100	> 100	> 100
CC1CC(=O)Nc2ccc(Cl)cc2N1C(=O)CN1CCC(CCCCN(C)C)CC1 (stereo not given)	> 100	> 100	> 100	> 100	> 100		> 100	> 100		> 100		> 100	> 100	> 100		> 100	> 100	> 100
CCOC(=O)/C=C/n1c2ccccc2c(=O)c2cc(OC)ccc21	> 100	> 100	> 100	> 100	> 100	> 100	> 100	> 100	> 100	> 100	> 100	> 100	> 100	> 100		> 100	> 100	> 100
CCCCn1c(-c2ccccc2)cs/c1=N\N=C1C=C(C(C)(C)C)C(=O)C(C(C)(C)C)=C1	> 100	> 100	> 100		> 100	> 100	> 100	> 100	> 100	> 100		> 100	> 100			> 100	> 100	> 100
O=C1NC(=O)C(C(=O)C(=O)Nc2cc(Cl)ccc2Cl)C(=O)N1	> 100	> 100	> 100	> 100		> 100	> 100	> 100	> 100	> 100	> 100	> 100	> 100	> 100	> 100		> 100	> 100
Cc1ccc2nc(NC(=O)C(=O)C(C(=O)c3ccc4ccccc4c3)C3OC(=O)c4ccccc43)sc2c1 (stereo not given)	18.5	53.8	34.6	32.7		44.5	20.8	19.2	32.6	22.9	26.3	> 100	21	> 100	27.7	62.1	29.3	
COc1ccccc1C1C2=C(COC2=O)Oc2cc3c(cc21)OCO3 (stereo not given)	28	> 100	14.2			> 42.8	> 100			> 100	8.11	> 100	12.6	45.9		> 100		
COc1ccc(C=Nc2ccc(-c3nc4ccccc4s3)cc2)cc1OC	44.3	> 100	39.6			> 100	> 100			89.2	47.4	> 100	55.5	> 100		> 100		
C/C(=N\Nc1ccccc1)c1sc(-c2nc(C)c(/C(C)=N/Nc3ccccc3)s2)nc1C	> 83.1	> 35.8	25.6	> 100	> 21.1	> 100	> 100	> 82	> 85.2	51	48.3	> 100	> 34.9	> 100	> 100	> 100	> 30.8	
CC(=O)N1C(C(=O)NN2CCOCC2)CSC1c1ccccc1 (stereo not given)	> 100	> 100	> 100			> 100	> 100			> 100	> 100	> 100	> 100	> 100		> 100		
